Data as given in patent US20260240837A1, “Compositions Reducing the Expression or Activity of C1 GALT1 for Treating Ewing Sarcoma” (University of Massachusetts Medical School, priority 2023, published 2026).
Entries after “also recorded” stand apart in the source; their conditions may differ. Residues, ends and D or L forms follow the SMILES beside them. *: point of attachment. Cbz = O=C(OCc1ccccc1)*

Assays:
[1] = tested on: EWSR1::FLI1; assay: Immunoblot of EWSR1::FLI1 protein levels (anti-FLI1 antibody) in A673 cells; type: cell-based, human; conditions: compound at 2.5-10 μM for 48 hours, FIGS. 6B-6C
Method: Cells extracts were prepared in radioimmunoprecipitation assay (RIPA) buffer (1% Triton-X100, 0.1% sodium dodecyl sulfate (SDS), 0.5% deoxycholic acid, 20 mM tris(hydroxymethyl)aminomethane (Tris), pH 7.5, 10% glycerol) containing 1× complete ethylenediaminetetraacetic acid (EDTA)-free protease inhibitor cocktail (Roche, Basel, Switzerland, Cat #11873580001) and 1 mM phenylmethylsulfonyl fluoride (PMSF). For the immunoblot in FIG. 7L, cells expressing FLAG-SMO (wild-type and mutants) were treated with 10 μM MG132 (Selleck Chemicals, Houston, TX, Cat #S2619; CAS No. 1211877-36-9) for 12 hours or 100 nM bafilomycin A1 (Selleck Chemicals, Cat #S1413; CAS No. 88899-55-2) for 6 hours. Total cell lysates (30 μg) were subjected to SDS-polyacrylamide gel electrophoresis (PAGE) and transferred to nitrocellulose membrane, which were blocked with 5% non-fat dry milk, and incubated with the following antibodies overnight at 4° C.: anti-C1GALT1 (1:1000 dilution; Santa Cruz Biotechnology, Dallas, TX, Cat #SC-100745), anti-FLI1 (1:2000 dilution; Abcam, Cambridge, United Kingdom, Cat #ab 133485), anti-EWSR1 (1:1000 dilution; Sigma Aldrich, Cat #HPA051771), anti-GLI1 (1:1000 dilution; Cell Signaling Technology, Danvers, MA, Cat #2553), anti-GLI2 (1:500 dilution; Abcam, Cat #ab187386), anti-PARP1 (1:500 dilution; Santa Cruz Biotechnology, Cat #SC-8007), anti-SMO (1:2000 dilution; Abcam, Cat #ab236465), anti-β-actin (1:2000 dilution; Sigma, Cat #A2228), anti-GAPDH (1:2000 dilution; Abcam, Cat #ab8245) or anti-FLAG M2 (1:1000 dilution; Sigma, Cat #F1804). The blots were imaged by exposing to x-ray film. The experiments were conducted three independent times, and the results from one representative experiment are shown.
(§1) In the experiment in FIG. 5D, cells were treated with 10 μM ketoconazole (Sigma, Cat #PHR1385; CAS No. 65277-42-1) for 72 hours. Dimethyl sulfoxide (DMSO) was used as vehicle control.

[2] = tested on: EWSR1::FLI1; assay: qRT-PCR of EWSR1::FLI1 expression in A673 cells; type: cell-based, human; conditions: compound at 2.5-10 μM for 48 hours, FIGS. 6B-6C
Method: (§2) Total RNA was isolated from cells using Trizol (Invitrogen, Cat #15596). cDNA was synthesized using Proto Script II reverse transcription kit (New England Biolabs (NEB), Ipswich, MA, Cat #E6560) and real-time PCR reactions were performed using Quant Studio 3 (Applied Biosystems by Thermo Fisher Scientific) using primer sequences listed in Table 2. Gene expression was normalized to that of GAPDH. A control without reverse transcription (no-RT control) was carried out in parallel to rule out the possibility of DNA contamination. The experiments were performed three independent times.
as §1

[3] = Animal weight / tolerability in xenograft-bearing mice; conditions: mice with TC-71, TC-32 or TC-106 xenografts; 100 mg/kg; FIG. 11G
Method: A673, TC-71, TC-106, or TC-32 cells (5×10^6) were suspended in PBS and […] ® extracellular matrix (Corning Cat #356234) in a 1:1 ratio, and subcutaneously injected into the right flank of 6-7 week old NOD scid gamma (NSG) immunocompromised mice (n=3 for each vehicle or drug treatment). Tumor dimensions were measured every 3 days with calipers, and the tumor volume was calculated using the formula volume=width^2× length/2.

[4] = tested on: EWSR1::FLI1/ERG; assay: qRT-PCR and immunoblot of EWSR1::FLI1/ERG in TC-71, TC-32 and TC-106 cells; type: cell-based, human; conditions: 48 hours, FIG. 9D
[5] = tested on: SMO; assay: Immunoblot and qRT-PCR of SMO in A673 cells; type: cell-based, human; conditions: 100 nM ITZ for 72 hours plus MG132 or BafA1, FIG. 7K
Method: as §2
(§3) Cells extracts were prepared in radioimmunoprecipitation assay (RIPA) buffer (1% Triton-X100, 0.1% sodium dodecyl sulfate (SDS), 0.5% deoxycholic acid, 20 mM tris(hydroxymethyl)aminomethane (Tris), pH 7.5, 10% glycerol) containing 1× complete ethylenediaminetetraacetic acid (EDTA)-free protease inhibitor cocktail (Roche, Basel, Switzerland, Cat #11873580001) and 1 mM phenylmethylsulfonyl fluoride (PMSF). For the immunoblot in FIG. 7L, cells expressing FLAG-SMO (wild-type and mutants) were treated with 10 μM MG132 (Selleck Chemicals, Houston, TX, Cat #S2619; CAS No. 1211877-36-9) for 12 hours or 100 nM bafilomycin A1 (Selleck Chemicals, Cat #S1413; CAS No. 88899-55-2) for 6 hours. […]

[6] = tested on: FLAG-SMO (T55A) and FLAG-SMO (T500A); assay: Immunoblot of FLAG-SMO mutants stably expressed in TC-71 cells; type: cell-based, human; conditions: FIG. 9F
Method: as §3

[7] = tested on: FLAG-SMO (T55A) and FLAG-SMO (T500A); assay: Ubiquitination immunoprecipitation assay in A673 cells; type: cell-based, human; conditions: A673 cells expressing HA-Ub; 10 μM MG132 or 100 nM bafilomycin A1 for 8 hours; FIG. 7M
Method: A673 cells stably expressing FLAG-tagged wild-type SMO, FLAG-SMO (T55A) or FLAG-SMO (T500A) were transfected with a plasmid expressing HA-tagged ubiquitin (HA-Ub; Addgene plasmid #18712 (Kamitani et al., 1997) and treated in the presence or absence of 10 μM MG132 for 8 hours or 100 nM bafilomycin A1 for 8 hours. Cell lysates were incubated with either an anti-HA magnetic beads (Sigma, Cat #SAE0197) or anti-FLAG M2 magnetic beads (Sigma, Cat #M8823), and immunoprecipitated proteins were detected using an anti-FLAG M2 (1:1500 dilution; Sigma, Cat #F1804) or anti-HA (1:1500 dilution; Cell Signaling Cat #2367) antibody.

[8] = tested on: FLAG-SMO (T55A) and FLAG-SMO (T500A); assay: Immunoblot of FLAG-SMO mutants stably expressed in A673 cells; type: cell-based, human; conditions: 10 μM MG132 for 12 hours or 100 nM bafilomycin A1 for 6 hours, FIG. 7L
Description: To generate cell lines stably ectopically expressing EWSR1::FLI1 (also referred to as EWS-FLI1, EWS::FLI1, or EWSR1-FLI1), TC-71 or NIH 3T3 cells were transduced with the lentiviral expression plasmid pCDH-puro-EWS-FLI1 or, as a control, pCDH-CMV-MCS-EFla-Puro and cells were selected with puromycin for five days. NIH 3T3 cells stably expressing SMO were generated by transduction of pHAGE-SMO or, as a control, pHAGE puro. NIH 3T3 cells stably expressing C1GALT1 were generated by transduction of C1GALT1-expression plasmid EX-W0494-Lv120 or, as a control, EX-EGFP-Lv120. A673 cell lines stably expressing FLAG-tagged wild-type SMO, FLAG-SMO (T55A), or FLAG-SMO (T500A) used lentiviral plasmids synthesized by GenScript in the pGenLenti vector.
Cells extracts were prepared in radioimmunoprecipitation assay (RIPA) buffer (1% Triton-X100, 0.1% sodium dodecyl sulfate (SDS), 0.5% deoxycholic acid, 20 mM tris(hydroxymethyl)aminomethane (Tris), pH 7.5, 10% glycerol) containing 1× complete ethylenediaminetetraacetic acid (EDTA)-free protease inhibitor cocktail (Roche, Basel, Switzerland, Cat #11873580001) and 1 mM phenylmethylsulfonyl fluoride (PMSF). […]

[9] = tested on: SMO and GLI1; assay: Immunoblot and qRT-PCR of SMO and GLI1 in NIH 3T3 cells; type: cell-based, mouse; conditions: FIG. 7E
Method: as §2, §3

[10] = tested on: EWSR1::FLI1^tdTomato reporter; assay: Flow cytometry of tdTomato in A673/EWSR1::FLI1^tdTomato/Cas9/EGFP reporter cells; type: cell-based, human; conditions: 10 μM for 72 hours; FIG. 5D
Method: To confirm that knockdown of EWSR1::FLI1 would reduce tdTomato fluorescence, A673/EWSR1::FLI1^tdTomato cells (1×10^5 cells/well in a 6-well plate) were infected with lentiviral particles expressing a non-silencing (NS), EWSR1, or FLI1 short hairpin RNA (shRNA) (Table 3), selected with 2 μg/ml puromycin for 5 days, and analyzed by flow cytometry using a BD LSRII flow cytometer (BD Biosciences). A673/EWSR1::FLI1^tdTomato cells were then infected with lentiviral particles expressing the plasmid lentiCas9-Blast (a gift from Feng Zhang; Addgene plasmid #52962; (Sanjana et al., 2014)) and selected with 3 μg/ml blasticidin for 7 days. Cas9 activity was confirmed by transducing A673/EWSR1::FLI1^tdTomato/Cas9 cells with the lentiviral vector pXPR_011 (a gift from John Doench and David Root; Addgene plasmid #59702; (Doench et al., 2014)), which carries a puromycin resistance marker and includes an enhanced green fluorescent protein (EGFP, also referred to as GFP) reporter gene and an sgRNA sequence specifically targeting the EGFP gene, followed by selection with 2 μg/ml puromycin for 5 days and analysis of EGFP by flow cytometry. Finally, A673/EWSR1::FLI1^tdTomato/Cas9 cells were infected with lentiviral particles expressing the plasmid pLenti CMV EGFP Blast (659-1) (a gift from Eric Campeau and Paul Kaufman; Addgene plasmid #17445 (Campeau et al., 2009)). […]

[11] = target: C1GALT1 (Homo sapiens, UniProt Q9NS00); conditions: previous studies (Lin et al., 2018); cited from earlier work
Chain of C1GALT1 (Q9NS00 whole entry): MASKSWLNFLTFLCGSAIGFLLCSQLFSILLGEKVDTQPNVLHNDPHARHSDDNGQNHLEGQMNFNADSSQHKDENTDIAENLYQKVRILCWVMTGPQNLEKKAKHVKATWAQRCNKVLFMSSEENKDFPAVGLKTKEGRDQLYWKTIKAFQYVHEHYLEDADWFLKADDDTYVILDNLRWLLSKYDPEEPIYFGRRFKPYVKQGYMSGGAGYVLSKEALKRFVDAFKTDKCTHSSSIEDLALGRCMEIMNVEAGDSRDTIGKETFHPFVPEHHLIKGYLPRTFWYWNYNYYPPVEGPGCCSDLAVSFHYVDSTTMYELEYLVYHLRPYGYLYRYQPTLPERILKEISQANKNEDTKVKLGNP

In the case of `CN(C)c1ccccc1CN1CCCN(Cc2ccccc2N(C)C)C1c1ccncc1` [GANT-61], the “EWSR1::FLI1 protein levels” value [1] is reported as “dose-dependent reduction” and the “EWSR1::FLI1 mRNA levels” value [2] is reported as “dose-dependent reduction”.

In the case of `CCC(C)n1ncn(-c2ccc(N3CCN(c4ccc(OCC5COC(Cn6cncn6)(c6ccc(Cl)cc6Cl)O5)cc4)CC3)cc2)c1=O` (stereo not shown) [ITZ, itraconazole], the animal weight [3] is reported as “absence of weight loss” and the “EWSR1::FLI1/ERG expression” value [4] is reported as “reduced”.

With `CC(C)C[C@@H](C=O)NC(=O)[C@H](CC(C)C)NC(=O)[C@H](CC(C)C)NC(=O)OCc1ccccc1` [MG132] (Cbz-Leu-Leu-Leu-aldehyde) the “reduction in SMO levels observed upon ITZ treatment” value [5] was “reversed”, the “stability of O-GalNAc-glycosylation-defective SMO mutants” value [6] was “restored” and the “ubiquitination of SMO (T55A) and SMO (T500A)” value [7] was “detected”. The “expression of SMO (T55A) and SMO (T500A) mutant proteins” value [8] was “restored”.

In the case of `CNC1CCC(N(Cc2cccc(-c3ccncc3)c2)C(=O)c2sc3ccccc3c2Cl)CC1.Cl` (stereo not shown) [SAG, Smoothened Agonist hydrochloride], the “EWSR1::FLI1 protein levels” value [1] is reported as “dose-dependent increase”, the “EWSR1::FLI1 mRNA levels” value [2] is reported as “dose-dependent increase” and the “levels of SMO and GLI1” value [9] is reported as “increased levels”.

In the case of `CO/C1=C\C(C)=C\[C@@H](C)[C@@H](O)[C@@H](C)C/C(C)=C/C=C/[C@H](OC)[C@@H]([C@@H](C)[C@@H](O)[C@H](C)[C@@]2(O)C[C@@H](O)[C@H](C)[C@@H](C(C)C)O2)OC1=O` [bafilomycin A1], the “reduction in SMO levels observed upon ITZ treatment” value [5] is reported as “reversed”, the “stability of O-GalNAc-glycosylation-defective SMO mutants” value [6] is reported as “restored” and the “ubiquitination of SMO (T55A) and SMO (T500A)” value [7] is reported as “detected”. For the same compound, the “expression of SMO (T55A) and SMO (T500A) mutant proteins” value [8] was “restored”.

For `CC1=C2C[C@H]3[C@@H](CC=C4C[C@@H](O)CC[C@@]43C)[C@@H]2CC[C@]12O[C@@H]1C[C@H](C)CN[C@H]1[C@H]2C` [cyclopamine], the “EWSR1::FLI1 protein levels” value [1] was “dose-dependent reduction” and the “EWSR1::FLI1 mRNA levels” value [2] was “dose-dependent reduction”.

In the case of `CC(=O)N1CCN(c2ccc(OCC3COC(Cn4ccnc4)(c4ccc(Cl)cc4Cl)O3)cc2)CC1` (stereo not shown) [ketoconazole], the “EWSR1::FLI1 expression (EWSR1::FLI1^tdTomato reporter)” value [10] is listed as “does not reduce; also recorded: no effect; also recorded: did not result in reduced” and the “inhibition of C1GALT1” value [11] is listed as “not to inhibit; also recorded: does not inhibit”.
